Data taken from patent US20260274829A1, “NEW E3 UBIQUITIN LIGASE LIGAND, PROTEIN DEGRADATION AGENT AND USE THEREOF” (GLUETACS THERAPEUTICS (SHANGHAI) CO., LTD., priority 2023, published 2026).

Columns and labels:
Assay type in all cases: cell-based
IKZF2 = biological target: T1, IKZF2 (Homo sapiens, UniProt Q96SW2+Q9UKS7); experiment: Western blot degradation of IKZF2 in hPBMC
T1 construct: endogenous in cells; host or cells: hPBMC
Description: (§1) Conventional Western blot assay was performed to evaluate the effects of the compounds of the present disclosure on the expression of target proteins in cells.
(§2) • (1) Cell Seeding and Protein Harvesting: The selected cells were processed according to the cell seeding procedure and protein harvesting procedure in Table III-2.
(§3) • (2) To the collected supernatant, 5×SDS sample loading buffer was added, followed by denaturation at 95° C. for 5 minutes. The denatured samples were then separated by SDS-PAGE electrophoresis on a polyacrylamide gel. Proteins were transferred to a nitrocellulose membrane ([…] NC membrane), blocked with blocking buffer at room temperature for 1 hour, and subjected to antibody incubation and development procedures according to the antibody manufacturer's instructions (Cell Signaling Technology).
(§4) Half-Maximal Degradation Concentration value (the drug concentration required for degrading proteins by 50%, abbreviated as DC50) reads method: comparing the grayscale values of Western blot bands from drug-treated samples with those from blank DMSO-treated controls, and identifying the drug concentration range at which the grayscale value is half that of the DMSO-treated control bands.
(§5) DC50 values can be calculated using ImageJ software to measure grayscale values of Western blot bands from drug-treated samples. The concentration-response curve is fitted to estimate the drug concentration corresponding to half the grayscale value.
(§6) Target protein remaining (0%) refers to the percentage of target protein remaining in hPBMC cells after treatment with protein degrader compounds.
(§7) Calculation method for target protein remaining (0%): Use ImageJ software to measure grayscale values of Western blot bands from drug (protein degrader)-treated samples. The grayscale value of drug-treated bands is divided by that of internal control protein bands, and the resulting quotient is normalized to obtain the relative percentage of remaining target protein after protein degrader treatment.

IKZF1 = biological target: T2, IKZF1 (Homo sapiens, UniProt Q13422+Q96SW2); experiment: Western blot degradation of IKZF1 in hPBMC
T2 construct: endogenous in cells; host or cells: hPBMC
Description: as §1, §2, §3, §4, §5, §6, §7

GSPT1 = biological target: T3, GSPT1 (Homo sapiens, UniProt P15170+Q96SW2); experiment: Western blot degradation of GSPT1 in hPBMC
T3 construct: endogenous in cells; host or cells: hPBMC
Description: as §1, §2, §3, §4, §5, §6, §7

IKZF3 = biological target: T4, IKZF3 (Homo sapiens, UniProt Q96SW2+Q9UKT9); experiment: Western blot degradation of IKZF3 in hPBMC
T4 construct: endogenous in cells; host or cells: hPBMC
Description: as §1, §2, §3, §4, §5, §6, §7

CK1a = biological target: T5, CK1a (Homo sapiens, UniProt P48729+Q96SW2); experiment: Western blot degradation of CK1a in hPBMC
T5 construct: endogenous in cells; host or cells: hPBMC
Description: as §1, §2, §3, §4, §5, §6, §7

WEE1 = biological target: T6, WEE1 (Homo sapiens, UniProt P30291+Q96SW2); experiment: Western blot degradation of WEE1 in hPBMC
T6 construct: endogenous in cells; host or cells: hPBMC
Description: as §1, §2, §3, §4, §5, §6, §7

T6 sequence (P30291 whole entry): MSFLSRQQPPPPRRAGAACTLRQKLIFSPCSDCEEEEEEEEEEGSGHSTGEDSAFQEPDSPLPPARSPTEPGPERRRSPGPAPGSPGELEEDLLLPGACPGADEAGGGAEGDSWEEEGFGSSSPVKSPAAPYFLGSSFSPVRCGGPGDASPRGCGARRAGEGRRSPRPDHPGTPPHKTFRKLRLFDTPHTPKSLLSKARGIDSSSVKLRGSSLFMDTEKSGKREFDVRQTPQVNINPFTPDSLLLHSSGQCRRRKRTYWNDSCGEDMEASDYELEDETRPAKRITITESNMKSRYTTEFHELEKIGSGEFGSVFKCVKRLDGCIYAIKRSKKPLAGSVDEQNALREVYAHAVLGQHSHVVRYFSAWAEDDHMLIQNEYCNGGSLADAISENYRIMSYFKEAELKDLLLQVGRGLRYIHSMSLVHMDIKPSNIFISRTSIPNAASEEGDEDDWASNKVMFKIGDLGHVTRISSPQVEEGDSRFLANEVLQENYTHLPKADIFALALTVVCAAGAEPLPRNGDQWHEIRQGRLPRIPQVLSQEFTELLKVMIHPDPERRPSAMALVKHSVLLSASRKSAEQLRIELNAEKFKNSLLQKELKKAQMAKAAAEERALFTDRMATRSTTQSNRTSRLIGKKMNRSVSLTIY
T6 sequence (Q96SW2 whole entry): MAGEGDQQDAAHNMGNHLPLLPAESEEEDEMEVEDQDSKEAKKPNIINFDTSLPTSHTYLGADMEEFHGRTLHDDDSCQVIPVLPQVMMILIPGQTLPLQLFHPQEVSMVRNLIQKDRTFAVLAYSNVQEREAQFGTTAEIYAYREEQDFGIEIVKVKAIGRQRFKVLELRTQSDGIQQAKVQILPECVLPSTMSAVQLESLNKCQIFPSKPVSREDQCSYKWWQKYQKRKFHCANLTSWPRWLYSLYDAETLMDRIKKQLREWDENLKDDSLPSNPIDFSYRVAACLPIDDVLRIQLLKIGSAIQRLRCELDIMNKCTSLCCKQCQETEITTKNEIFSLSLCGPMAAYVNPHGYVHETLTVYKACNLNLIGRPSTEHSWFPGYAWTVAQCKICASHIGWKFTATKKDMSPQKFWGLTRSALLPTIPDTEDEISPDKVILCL
T6 sequence (Q16531 whole entry partner): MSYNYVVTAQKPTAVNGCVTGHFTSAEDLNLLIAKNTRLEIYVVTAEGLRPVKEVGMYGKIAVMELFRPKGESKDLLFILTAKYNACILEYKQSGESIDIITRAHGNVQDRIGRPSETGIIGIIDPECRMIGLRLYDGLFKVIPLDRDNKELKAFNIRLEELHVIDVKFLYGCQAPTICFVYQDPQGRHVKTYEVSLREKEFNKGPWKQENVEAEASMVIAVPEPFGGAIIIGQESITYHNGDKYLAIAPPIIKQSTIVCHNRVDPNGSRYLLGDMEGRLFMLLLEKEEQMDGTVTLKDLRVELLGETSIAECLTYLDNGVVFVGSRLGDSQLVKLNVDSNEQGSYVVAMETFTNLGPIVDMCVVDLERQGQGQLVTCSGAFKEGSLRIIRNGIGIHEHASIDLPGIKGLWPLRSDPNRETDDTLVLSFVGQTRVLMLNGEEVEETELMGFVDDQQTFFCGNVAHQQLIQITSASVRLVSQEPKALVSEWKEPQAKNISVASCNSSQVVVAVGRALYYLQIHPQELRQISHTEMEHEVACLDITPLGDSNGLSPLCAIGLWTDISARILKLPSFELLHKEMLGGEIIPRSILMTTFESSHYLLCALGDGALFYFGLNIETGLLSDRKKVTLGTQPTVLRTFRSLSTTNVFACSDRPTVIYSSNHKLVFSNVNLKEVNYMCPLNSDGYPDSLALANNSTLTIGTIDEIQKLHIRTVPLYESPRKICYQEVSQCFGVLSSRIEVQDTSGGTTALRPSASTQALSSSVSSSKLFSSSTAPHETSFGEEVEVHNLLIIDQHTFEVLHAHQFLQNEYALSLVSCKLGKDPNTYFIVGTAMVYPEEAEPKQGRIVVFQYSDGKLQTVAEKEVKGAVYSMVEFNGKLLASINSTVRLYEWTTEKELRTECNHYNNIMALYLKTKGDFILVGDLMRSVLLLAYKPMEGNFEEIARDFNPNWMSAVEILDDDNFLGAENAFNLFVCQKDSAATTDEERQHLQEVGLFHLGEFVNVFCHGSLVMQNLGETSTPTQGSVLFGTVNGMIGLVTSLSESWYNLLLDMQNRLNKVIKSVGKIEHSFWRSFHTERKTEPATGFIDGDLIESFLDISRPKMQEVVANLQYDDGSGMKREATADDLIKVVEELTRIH
T1 sequence (Q9UKS7 whole entry): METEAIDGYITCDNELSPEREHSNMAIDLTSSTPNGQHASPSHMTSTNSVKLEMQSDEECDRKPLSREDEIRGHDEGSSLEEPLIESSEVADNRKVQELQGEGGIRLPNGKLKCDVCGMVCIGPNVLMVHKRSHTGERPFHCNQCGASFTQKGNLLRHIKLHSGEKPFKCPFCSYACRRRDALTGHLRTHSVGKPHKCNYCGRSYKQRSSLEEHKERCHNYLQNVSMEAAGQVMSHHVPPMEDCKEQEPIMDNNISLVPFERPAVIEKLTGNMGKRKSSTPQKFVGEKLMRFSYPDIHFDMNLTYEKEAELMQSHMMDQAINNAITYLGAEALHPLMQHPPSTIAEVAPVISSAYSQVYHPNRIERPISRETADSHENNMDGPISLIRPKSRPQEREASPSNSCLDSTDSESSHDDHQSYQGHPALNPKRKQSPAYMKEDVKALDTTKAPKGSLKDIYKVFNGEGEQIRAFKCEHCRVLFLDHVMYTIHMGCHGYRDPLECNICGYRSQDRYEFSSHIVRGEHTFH
T1 sequence (Q96SW2 whole entry): as the sequence (Q96SW2 whole entry) above
T1 sequence (Q16531 whole entry partner): as the sequence (Q16531 whole entry partner) above
T4 sequence (Q9UKT9 whole entry): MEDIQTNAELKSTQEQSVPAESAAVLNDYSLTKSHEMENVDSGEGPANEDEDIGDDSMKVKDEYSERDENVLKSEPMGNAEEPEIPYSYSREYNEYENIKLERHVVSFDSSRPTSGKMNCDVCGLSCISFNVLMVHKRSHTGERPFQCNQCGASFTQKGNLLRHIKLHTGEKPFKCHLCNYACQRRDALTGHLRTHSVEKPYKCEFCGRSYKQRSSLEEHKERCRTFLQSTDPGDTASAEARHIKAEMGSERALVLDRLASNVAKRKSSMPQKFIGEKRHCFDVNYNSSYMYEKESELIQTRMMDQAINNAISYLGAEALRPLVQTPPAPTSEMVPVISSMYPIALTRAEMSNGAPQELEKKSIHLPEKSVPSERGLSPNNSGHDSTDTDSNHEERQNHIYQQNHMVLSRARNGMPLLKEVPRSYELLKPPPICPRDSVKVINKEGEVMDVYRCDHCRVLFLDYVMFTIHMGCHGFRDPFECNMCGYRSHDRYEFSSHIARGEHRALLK
T4 sequence (Q96SW2 whole entry): as the sequence (Q96SW2 whole entry) above
T4 sequence (Q16531 whole entry partner): as the sequence (Q16531 whole entry partner) above
T3 sequence (P15170 whole entry): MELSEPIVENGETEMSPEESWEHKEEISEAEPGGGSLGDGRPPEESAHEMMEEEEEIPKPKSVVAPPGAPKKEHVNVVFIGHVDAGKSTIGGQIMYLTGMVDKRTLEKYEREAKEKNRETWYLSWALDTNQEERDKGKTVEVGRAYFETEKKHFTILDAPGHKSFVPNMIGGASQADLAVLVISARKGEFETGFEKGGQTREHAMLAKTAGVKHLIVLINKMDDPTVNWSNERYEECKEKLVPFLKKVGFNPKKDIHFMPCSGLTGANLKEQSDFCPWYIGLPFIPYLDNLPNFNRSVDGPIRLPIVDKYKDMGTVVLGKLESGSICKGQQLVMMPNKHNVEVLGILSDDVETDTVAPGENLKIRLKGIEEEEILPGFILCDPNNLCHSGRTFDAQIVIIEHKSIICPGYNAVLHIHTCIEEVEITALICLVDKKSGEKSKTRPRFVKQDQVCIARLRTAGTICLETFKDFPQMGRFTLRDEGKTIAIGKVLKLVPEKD
T3 sequence (Q96SW2 whole entry): as the sequence (Q96SW2 whole entry) above
T3 sequence (Q16531 whole entry partner): as the sequence (Q16531 whole entry partner) above
T5 sequence (P48729 whole entry): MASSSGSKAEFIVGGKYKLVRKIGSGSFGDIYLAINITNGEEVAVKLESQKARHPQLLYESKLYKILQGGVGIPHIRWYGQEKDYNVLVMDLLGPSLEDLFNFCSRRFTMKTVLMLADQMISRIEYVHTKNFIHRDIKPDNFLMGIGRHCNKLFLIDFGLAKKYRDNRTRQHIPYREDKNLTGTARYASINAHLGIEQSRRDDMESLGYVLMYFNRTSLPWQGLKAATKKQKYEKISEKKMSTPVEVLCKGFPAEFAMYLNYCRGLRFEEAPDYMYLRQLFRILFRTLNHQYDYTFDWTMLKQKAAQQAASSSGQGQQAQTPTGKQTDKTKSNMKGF
T5 sequence (Q96SW2 whole entry): as the sequence (Q96SW2 whole entry) above
T5 sequence (Q16531 whole entry partner): as the sequence (Q16531 whole entry partner) above

| Compound | Degradation of substrate protein IKZF2 (substrate protein remaining %) (IKZF2) | Degradation of substrate protein IKZF1 (substrate protein remaining %) (IKZF1) | Degradation of substrate protein GSPT1 (substrate protein remaining %) (GSPT1) | Degradation of substrate protein IKZF3 (substrate protein remaining %) (IKZF3) | Degradation of substrate protein CK1a (substrate protein remaining %) (CK1a) | Degradation of substrate protein WEE1 (substrate protein remaining %) (WEE1) |
| --- | --- | --- | --- | --- | --- | --- |
| O=Cc1cnc(NC2CCC(=O)NC2=O)nc1 (stereo not drawn) [GT-07367, 2-((2,6-dioxopiperidin-3-yl)amino)pyrimidine-5-carbaldehyde] | B (B is defined as substrate protein remaining % > 80%) | B (B is defined as substrate protein remaining % > 80%) | A (A is defined as 0% ≤ substrate protein remaining % ≤ 80%) | B (B is defined as substrate protein remaining % > 80%) | A (A is defined as 0% ≤ substrate protein remaining % ≤ 80%) | B (B is defined as substrate protein remaining % > 80%) |
| NCc1cc(N2CCC(=O)NC2=O)ncc1F [GT-07369, 1-(4-(aminomethyl)-5-fluoropyridin-2-yl)dihydropyrimidine-2,4(1H,3H)-dione] | B (B is defined as substrate protein remaining % > 80%) | B (B is defined as substrate protein remaining % > 80%) | A (A is defined as 0% ≤ substrate protein remaining % ≤ 80%) | B (B is defined as substrate protein remaining % > 80%) | A (A is defined as 0% ≤ substrate protein remaining % ≤ 80%) | B (B is defined as substrate protein remaining % > 80%) |
| O=C1CCC(c2ncccc2CO)C(=O)N1 (stereo not drawn) [GT-07370, 3-(3-(hydroxymethyl)pyridin-2-yl)piperidine-2,6-dione] | B (B is defined as substrate protein remaining % > 80%) | B (B is defined as substrate protein remaining % > 80%) | A (A is defined as 0% ≤ substrate protein remaining % ≤ 80%) | B (B is defined as substrate protein remaining % > 80%) | A (A is defined as 0% ≤ substrate protein remaining % ≤ 80%) | B (B is defined as substrate protein remaining % > 80%) |
| O=C1CCC(c2ncc(CO)cc2F)C(=O)N1 (stereo not drawn) [GT-07443, 3-(3-fluoro-5-(hydroxymethyl)pyridin-2-yl)piperidine-2,6-dione] | A (A is defined as 0% ≤ substrate protein remaining % ≤ 80%) | A (A is defined as 0% ≤ substrate protein remaining % ≤ 80%) | A (A is defined as 0% ≤ substrate protein remaining % ≤ 80%) | B (B is defined as substrate protein remaining % > 80%) | A (A is defined as 0% ≤ substrate protein remaining % ≤ 80%) | A (A is defined as 0% ≤ substrate protein remaining % ≤ 80%) |
| O=C1CCC(c2cc(CO)c(F)cn2)C(=O)N1 (stereo not drawn) [GT-07444, 3-(5-fluoro-4-(hydroxymethyl)pyridin-2-yl)piperidine-2,6-dione] | A (A is defined as 0% ≤ substrate protein remaining % ≤ 80%) | B (B is defined as substrate protein remaining % > 80%) | B (B is defined as substrate protein remaining % > 80%) | A (A is defined as 0% ≤ substrate protein remaining % ≤ 80%) | B (B is defined as substrate protein remaining % > 80%) | B (B is defined as substrate protein remaining % > 80%) |
| CC(C)(C)[Si](C)(C)OCc1ccc(NC2CCC(=O)NC2=O)cn1 (stereo not drawn) [GT-07445, 3-((6-(((tert-butyldimethylsilyl)oxy)methyl)pyridin-3-yl)amino)piperidine-2,6-dione] | B (B is defined as substrate protein remaining % > 80%) | A (A is defined as 0% ≤ substrate protein remaining % ≤ 80%) | A (A is defined as 0% ≤ substrate protein remaining % ≤ 80%) | B (B is defined as substrate protein remaining % > 80%) | A (A is defined as 0% ≤ substrate protein remaining % ≤ 80%) | A (A is defined as 0% ≤ substrate protein remaining % ≤ 80%) |
| O=C1CCC(Nc2ccc(CO)nc2)C(=O)N1 (stereo not drawn) [GT-07446, 3-((6-(hydroxymethyl)pyridin-3-yl)amino)piperidine-2,6-dione] | A (A is defined as 0% ≤ substrate protein remaining % ≤ 80%) | A (A is defined as 0% ≤ substrate protein remaining % ≤ 80%) | A (A is defined as 0% ≤ substrate protein remaining % ≤ 80%) | A (A is defined as 0% ≤ substrate protein remaining % ≤ 80%) | A (A is defined as 0% ≤ substrate protein remaining % ≤ 80%) | A (A is defined as 0% ≤ substrate protein remaining % ≤ 80%) |
| O=Cc1cccnc1NC1CCC(=O)NC1=O (stereo not drawn) [GT-07447, 2-((2,6-dioxopiperidin-3-yl)amino)nicotinaldehyde] | A (A is defined as 0% ≤ substrate protein remaining % ≤ 80%) | A (A is defined as 0% ≤ substrate protein remaining % ≤ 80%) | A (A is defined as 0% ≤ substrate protein remaining % ≤ 80%) | A (A is defined as 0% ≤ substrate protein remaining % ≤ 80%) | A (A is defined as 0% ≤ substrate protein remaining % ≤ 80%) | A (A is defined as 0% ≤ substrate protein remaining % ≤ 80%) |
| O=C1CCC(Nc2cncc(CO)c2)C(=O)N1 (stereo not drawn) [GT-07448, 3-((5-(hydroxymethyl)pyridin-3-yl)amino)piperidine-2,6-dione] | A (A is defined as 0% ≤ substrate protein remaining % ≤ 80%) | A (A is defined as 0% ≤ substrate protein remaining % ≤ 80%) | A (A is defined as 0% ≤ substrate protein remaining % ≤ 80%) | A (A is defined as 0% ≤ substrate protein remaining % ≤ 80%) | A (A is defined as 0% ≤ substrate protein remaining % ≤ 80%) | A (A is defined as 0% ≤ substrate protein remaining % ≤ 80%) |
| CC(C)(C)[Si](C)(C)OCc1cncc(NC2CCC(=O)NC2=O)c1 (stereo not drawn) [GT-07449, 3-((5-(((tert-butyldimethylsilyl)oxy)methyl)pyridin-3-yl)amino)piperidine-2,6-dione] | A (A is defined as 0% ≤ substrate protein remaining % ≤ 80%) | B (B is defined as substrate protein remaining % > 80%) | B (B is defined as substrate protein remaining % > 80%) | B (B is defined as substrate protein remaining % > 80%) | B (B is defined as substrate protein remaining % > 80%) | B (B is defined as substrate protein remaining % > 80%) |
| O=C1CCC(Nc2ccc(CO)cn2)C(=O)N1 (stereo not drawn) [GT-07551, 3-((5-(hydroxymethyl)pyridin-2-yl)amino)piperidine-2,6-dione] | A (A is defined as 0% ≤ substrate protein remaining % ≤ 80%) | B (B is defined as substrate protein remaining % > 80%) | B (B is defined as substrate protein remaining % > 80%) | B (B is defined as substrate protein remaining % > 80%) | B (B is defined as substrate protein remaining % > 80%) | A (A is defined as 0% ≤ substrate protein remaining % ≤ 80%) |
